# Starred links: 1 amine or outer side, 2 acyl side, 3 side chain; linkers in the order of their positions; H or OH if unused. Positions of bridges follow the written chain, without caps; N, C: chain ends. Non-standard residues stand in square brackets, D forms with d. Residues, ends and D or L forms follow the SMILES beside them. Trimesoyl = O=C(c1cc(C(=O)[*:2])cc(C(=O)[*:3])c1)[*:1]; Phe(3-Cl) = N[C@@H](Cc1cccc(Cl)c1)C(=O)O; Phe(4-Cl) = N[C@@H](Cc1ccc(Cl)cc1)C(=O)O; Phe(4-F) = N[C@@H](Cc1ccc(F)cc1)C(=O)O; d2Nal = N[C@H](Cc1ccc2ccccc2c1)C(=O)O; βAsp = O=C(O)[C@H](CC(=O)[*:2])N[*:1]; Nle = CCCC[C@H](N)C(=O)O; Orn = NCCC[C@H](N)C(=O)O; Dap = NC[C@H](N)C(=O)O
# How the values were obtained:
# Etf-1 = Etf-1 (Ehrlichia chaffeensis, UniProt Q2GG12); assay: FP assay of Etf-1 binding with FAM-labeled peptides
# Experimental: The peptides were labeled at their C-terminus with carboxyfluorescein (FAM) through a β-Ala-β-Ala-Lys linker and evaluated for binding to Etf-1 by using a fluorescence polarization (FP) assay. […] This outcome is not unexpected, as screening OBOC libraries is often complicated by false positives, due to the presence of high ligand densities on library beads ([28]).
# Fig. 2. Determination of binding affinity of Etf-1-binding peptides by FP assay. […] FAM-labeled peptide (50 nM) was incubated with serially diluted Etf-1 (starting from 25–30 μM in PBS, pH 7.4, supplemented with 5 mM DTT and 0.01% Triton X-100) for 1 h at RT. FP values were measured on a Tecan Infinite M1000 Pro plate reader. Titration curves (n ≥ 3) were fitted using GraphPad Prism and analyzed with TraceDrawer to calculate dissociation constants (KD). […] Data were analyzed using GraphPad Prism and fitted to a four-parameter variable slope equation to determine IC50 values.
# Etf-1 and macrocyclic peptides were serially diluted in PBS supplemented with 5 mM DTT and 0.01% Triton X-100 (v/v). FAM-labeled peptides (50 nM) were prepared from a 10-μM DMSO stock and incubated with serially diluted Etf-1 for 1 h at room temperature (RT). Twenty microliters of the solutions were transferred to a black 384-well plate (Greiner Bio-One) and FP values were measured on a Tecan Infinite M1000 Pro plate reader with excitation and emission wavelengths at 470 and 535 nm, respectively. Titration curves (n ≥ 3) were fitted using GraphPad Prism v8.0 (GraphPad, La Jolla, CA, USA), and analyzed with TraceDrawer software v1.8 (Ridgeview Instruments AB, Uppsala, Sweden) to calculate the dissociation constant (KD, in nM).
# E. chaffeensis [1] = assay: E. chaffeensis infection of THP-1 cells, qPCR of 16S rRNA gene normalized to human actin; type: cell-based, Ehrlichia chaffeensis
# Experimental: Therefore, we investigated whether these Etf-1-binding peptides can prevent the proliferation of E. chaffeensis inside host cells. THP-1 cells were infected with E. chaffeensis, then treated with the peptides at 30 min post infection (pi) for 2 days. Intracellular infection and proliferation of E. chaffeensis inside host THP-1 cells were assessed using quantitative PCR (qPCR) analysis based on E. chaffeensis 16S rRNA gene normalized by human actin (ACT) gene.
# Fig. 5. Effects of Etf-1-binding peptides on E. chaffeensis infection of THP-1 cells. Ehrlichia chaffeensis-infected THP-1 cells at […] were incubated with 10 μM of Etf-1-binding macrocyclic peptide or DMSO control for 2 days.
# No antibiotic was used throughout the study.
# DNA was extracted from each sample using Qiagen blood mini kit according to the manufacturer's instructions (Qiagen, Valencia, CA, USA), and qPCR analysis was performed in an MX3000P qPCR instrument (Stratagene, San Diego, CA, USA) using SYBR Green Real-Time PCR Master Mix (Thermo Fisher Scientific) according to the manufacturer's instructions. Five-fold serial dilutions of the control group were used to generate a standard curve to calculate the relative copy numbers of E. chaffeensis 16S rRNA normalized against human actin genes using the MX3000P software from Stratagene as described previously ([18], [44]).
# E. chaffeensis [2] = assay: morphological examination of E. chaffeensis infection of THP-1 cells by Diff-Quik staining; details: THP-1 cells, Fig. S4 (with Figs. 5, S3)
# Experimental: Ehrlichia chaffeensis Arkansas strain ([43]) was cultured in THP-1 cells (ATCC, Manassas, VA, USA) in RPMI 1640 medium (Corning, Manassas, VA, USA) supplemented with 8% FBS (Atlanta Biologicals, Flowery Branch, GA, USA) and 4 mM L-glutamine (at 37°C under 5% CO2 in a humidified atmosphere. THP-1 cells were seeded at 1 × 10^5 cells/well (in 1.5-mL RPMI 1640 culture medium with 8% FBS, 4 mM L-Gln) in a 12-well plate, then infected with host cell-free E. chaffeensis at an MOI (multiplicity of infection, or numbers of bacteria per cell) of ∼30. Cells were cultured in a humidified incubator with 5% CO2 and 95% air. No antibiotic was used throughout the study. At 0.5 h post infection (pi), cells were incubated with 1–10 μM of peptides or with an equal volume of DMSO (solvent control, 2 μL per mL medium). At 2 days pi, cells were washed with 1 mL of PBS, and two drops of cells were cytospun onto glass slides by a Shandon Cytospin 4 cytocentrifuge (Thermo Fisher Scientific), then fixed and stained with HEMA 3 staining solutions (Thermo Fisher Scientific). Ehrlichia infection was observed and images were captured by a SPOT RT digital camera (Diagnostic Instruments, Sterling Heights, MI, USA) coupled to a Nikon Eclipse E400 microscope (Nikon, Melville, NY, USA).
# Sequence of Etf-1 (Q2GG12 entry or part of it): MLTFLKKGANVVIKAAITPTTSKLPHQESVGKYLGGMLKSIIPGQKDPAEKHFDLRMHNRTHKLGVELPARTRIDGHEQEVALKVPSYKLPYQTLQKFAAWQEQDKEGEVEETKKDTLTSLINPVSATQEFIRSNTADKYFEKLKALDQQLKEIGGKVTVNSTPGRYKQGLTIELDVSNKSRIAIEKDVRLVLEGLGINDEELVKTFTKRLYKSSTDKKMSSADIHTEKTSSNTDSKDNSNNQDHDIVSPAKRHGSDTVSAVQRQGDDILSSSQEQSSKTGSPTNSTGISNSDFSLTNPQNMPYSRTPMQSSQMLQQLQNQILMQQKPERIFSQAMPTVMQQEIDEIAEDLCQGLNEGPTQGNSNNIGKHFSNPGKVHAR
SMILES,Kd (Etf-1),also measured
"CC(C)C[C@H]1NC(=O)[C@H](CO)NC(=O)[C@@H](C)NC(=O)[C@H](CCC(N)=O)NC(=O)[C@H](Cc2c[nH]cn2)NC(=O)[C@H](Cc2ccc(O)cc2)NC(=O)c2cc3cc(c2)C(=O)NC[C@H](NC1=O)C(=O)N[C@@H](Cc1ccccc1)C(=O)N[C@H](Cc1ccc2ccccc2c1)C(=O)N[C@H](CCCNC(=N)N)C(=O)N[C@@H](CCCNC(=N)N)C(=O)N[C@H](CCCNC(=N)N)C(=O)N[C@@H](CCCNC(=N)N)C(=O)N[C@H](C(N)=O)CNC3=O [Peptide B7-3, TMA-Tyr-His-Gln-ala-Ser-leu-Dap-Phe-nal-arg-Arg-arg-Arg-Dap] (YHQ[dA]S[dL][Dap]F[d2Nal][dR]R[dR]R[Dap]-NH2; linker N-7-14 via Trimesoyl)",5.8 ± 0.5 µM,
"CC(C)C[C@H]1NC(=O)[C@H](CO)NC(=O)[C@H]2CCCN2C(=O)[C@H](CCC(N)=O)NC(=O)[C@H](Cc2c[nH]cn2)NC(=O)[C@H](Cc2ccc(O)cc2)NC(=O)c2cc3cc(c2)C(=O)NC[C@H](NC1=O)C(=O)N[C@@H](Cc1ccccc1)C(=O)N[C@H](Cc1ccc2ccccc2c1)C(=O)N[C@H](C)C(=O)N[C@@H](CCCNC(=N)N)C(=O)N[C@H](CCCNC(=N)N)C(=O)N[C@@H](CCCNC(=N)N)C(=O)N[C@H](C(N)=O)CNC3=O [Peptide B7-9, TMA-Tyr-His-Gln-pro-Ser-leu-Dap-Phe-nal-ala-Arg-arg-Arg-Dap] (YHQ[dP]S[dL][Dap]F[d2Nal][dA]R[dR]R[Dap]-NH2; linker N-7-14 via Trimesoyl)",30 ± 7 µM,
"CC(C)C[C@H]1NC(=O)[C@H](CO)NC(=O)[C@H]2CCCN2C(=O)[C@H](CCC(N)=O)NC(=O)[C@H](Cc2c[nH]cn2)NC(=O)[C@H](Cc2ccc(O)cc2)NC(=O)c2cc3cc(c2)C(=O)NC[C@H](NC1=O)C(=O)N[C@@H](Cc1ccccc1)C(=O)N[C@H](Cc1ccc2ccccc2c1)C(=O)N[C@H](CCCNC(=N)N)C(=O)N[C@@H](C)C(=O)N[C@H](CCCNC(=N)N)C(=O)N[C@@H](CCCNC(=N)N)C(=O)N[C@H](C(N)=O)CNC3=O [Peptide B7-10, TMA-Tyr-His-Gln-pro-Ser-leu-Dap-Phe-nal-arg-Ala-arg-Arg-Dap] (YHQ[dP]S[dL][Dap]F[d2Nal][dR]A[dR]R[Dap]-NH2; linker N-7-14 via Trimesoyl)",30 ± 3 µM,
"CC(C)C[C@H]1NC(=O)[C@H](CO)NC(=O)[C@H]2CCCN2C(=O)[C@H](CCC(N)=O)NC(=O)[C@H](Cc2c[nH]cn2)NC(=O)[C@H](Cc2ccc(O)cc2)NC(=O)c2cc3cc(c2)C(=O)NC[C@H](NC1=O)C(=O)N[C@@H](Cc1cccc(Cl)c1)C(=O)N[C@H](Cc1ccc2ccccc2c1)C(=O)N[C@H](CCCNC(=N)N)C(=O)N[C@@H](CCCNC(=N)N)C(=O)N[C@H](CCCNC(=N)N)C(=O)N[C@@H](CCCNC(=N)N)C(=O)N[C@H](C(N)=O)CNC3=O [Peptide B7-17, TMA-Tyr-His-Gln-pro-Ser-leu-Dap-3-ClPhe-nal-arg-Arg-arg-Arg-Dap] (YHQ[dP]S[dL][Dap][Phe(3-Cl)][d2Nal][dR]R[dR]R[Dap]-NH2; linker N-7-14 via Trimesoyl)",3.4 ± 0.4 µM,
"CC(C)C[C@H]1NC(=O)[C@H](Cc2ccc(F)cc2)NC(=O)[C@@H](CCC(=O)O)NC(=O)C[C@@H](C(=O)O)NC(=O)[C@H](CCCN)NC(=O)[C@H](CC(=O)O)NC(=O)[C@H](Cc2ccc(O)cc2)NC(=O)c2cc3cc(c2)C(=O)NC[C@H](NC1=O)C(=O)N[C@@H](Cc1ccc(Cl)cc1)C(=O)N[C@H](Cc1ccc2ccccc2c1)C(=O)N[C@H](CCCNC(=N)N)C(=O)N[C@@H](CCCNC(=N)N)C(=O)N[C@H](CCCNC(=N)N)C(=O)N[C@@H](CCCNC(=N)N)C(=O)N[C@H](C(N)=O)CNC3=O [Peptide B7-95-1, TMA-Tyr-Asp-Orn-isoAsp-glu-Fpa-leu-Dap-4-ClPhe-nal-arg-Arg-arg-Arg-Dap] (YD[Orn][βAsp][dE][Phe(4-F)][dL][Dap][Phe(4-Cl)][d2Nal][dR]R[dR]R[Dap]-NH2; linker N-8-15 via Trimesoyl)",3.2 µM,
"CCCC[C@@H]1NC(=O)[C@H](CC(=O)O)NC(=O)[C@@H](Cc2ccccc2)NC(=O)[C@H](Cc2ccc(O)cc2)NC(=O)c2cc3cc(c2)C(=O)NC[C@H](NC(=O)[C@@H](CC(C)C)NC(=O)[C@@H](CC(N)=O)NC1=O)C(=O)N[C@@H](Cc1ccc(Cl)cc1)C(=O)N[C@H](Cc1ccc2ccccc2c1)C(=O)N[C@H](CCCNC(=N)N)C(=O)N[C@@H](CCCNC(=N)N)C(=O)N[C@H](CCCNC(=N)N)C(=O)N[C@@H](CCCNC(=N)N)C(=O)N[C@H](C(N)=O)CNC3=O [Peptide B7-133-3, TMA-Tyr-phe-Asp-Nle-asn-leu-Dap-4-ClPhe-nal-arg-Arg-arg-Arg-Dap] (Y[dF]D[Nle][dN][dL][Dap][Phe(4-Cl)][d2Nal][dR]R[dR]R[Dap]-NH2; linker N-7-14 via Trimesoyl)",,"inhibition of E. chaffeensis infection (E. chaffeensis [1]; 10 μM, 2 days, vs DMSO control): significantly inhibited; dose dependence of inhibition of E. chaffeensis infection (E. chaffeensis [1]; 1, 5, and 10 μM): dose-dependent manner; inhibition of E. chaffeensis infection compared with peptide B7 (or B7-16) (E. chaffeensis [1]; THP-1 cells): significantly more potent inhibition; E. chaffeensis infection (numbers and sizes of morulae) (E. chaffeensis [2]): significantly inhibited"
"CCCC[C@@H]1NC(=O)[C@H](Cc2ccc(O)cc2)NC(=O)c2cc3cc(c2)C(=O)NC[C@H](NC(=O)[C@@H](CC(C)C)NC(=O)CNC(=O)[C@H](CCC(N)=O)NC(=O)[C@@H](CCC(=O)O)NC1=O)C(=O)N[C@@H](Cc1ccc(Cl)cc1)C(=O)N[C@H](Cc1ccc2ccccc2c1)C(=O)N[C@H](CCCNC(=N)N)C(=O)N[C@@H](CCCNC(=N)N)C(=O)N[C@H](CCCNC(=N)N)C(=O)N[C@@H](CCCNC(=N)N)C(=O)N[C@H](C(N)=O)CNC3=O [Peptide B7-133-4, TMA-Tyr-Nle-glu-Gln-Gly-leu-Dap-4-ClPhe-nal-arg-Arg-arg-Arg-Dap] (Y[Nle][dE]QG[dL][Dap][Phe(4-Cl)][d2Nal][dR]R[dR]R[Dap]-NH2; linker N-7-14 via Trimesoyl)",6.5 ± 0.1 µM,

# — paper PMC9982066, “Inhibition of Ehrlichia chaffeensis infection by cell-permeable macrocyclic peptides that bind type IV secretion effector Etf-1” (PNAS Nexus, 2023)
